The numbers were not newly measured in US20240032557A1, “AN IRON FORTIFIED TEA COMPOSITION” (Ekaterra Tea Manufacturing USA LLC, priority 2020, published 2024), which cites them from elsewhere.

For this data set the following is noted: water at 25° C.

Molecules are shown by their SMILES.

In the case of `O=C([O-])/C=C/C(=O)[O-].[Fe+2]` [ferrous fumarate], the solubility is reported as 0.14 g/100 g water.
